Experimental data from ChEMBL document CHEMBL3046164, “A facile synthesis of some 3-cyano-1,4,6-trisubstituted-2(1H)-pyridinones and their biological evaluation as anticancer agents” (2011).
Values joined by “and” are separate entries in the source; they are usually repeats but may differ in a detail not shown here. Equal entries are not always repeated.

Experiments:
Type in all cases: functional
SR [1] = assay: Growth inhibition of Homo sapiens (human) SR cells at 10 uM after 48 hr by SRB assay; conditions: read-out: GI
BT-549 [2] = assay: Growth inhibition of Homo sapiens (human) BT549 cells at 10 uM after 48 hr by SRB assay; conditions: BT-549, 48 h, read-out: GI
HOP-92 [3] = assay: Growth inhibition of Homo sapiens (human) HOP92 cells at 10 uM after 48 hr by SRB assay; conditions: HOP-92, 48 h, read-out: GI
NCI-H23 = assay: Growth inhibition of Homo sapiens (human) NCI-H23 cells at 10 uM after 48 hr by SRB assay; conditions: NCI-H23, 48 h, read-out: GI
RPMI-8226 [4] = assay: Growth inhibition of Homo sapiens (human) RPMI8226 cells at 10 uM after 48 hr by SRB assay; conditions: RPMI-8226, 48 h, read-out: GI
MOLT-4 = assay: Growth inhibition of Homo sapiens (human) MOLT4 cells at 10 uM after 48 hr by SRB assay; conditions: MOLT-4, 48 h, read-out: GI
HL-60(TB) [5] = assay: Growth inhibition of Homo sapiens (human) HL-60(TB) cells at 10 uM after 48 hr by SRB assay; conditions: HL-60, 48 h, read-out: GI
CCRF-CEM [6] = assay: Growth inhibition of Homo sapiens (human) CCRF-CEM cells at 10 uM after 48 hr by SRB assay; conditions: read-out: GI
K562 = assay: Growth inhibition of Homo sapiens (human) K562 cells at 10 uM after 48 hr by SRB assay; conditions: K562, 48 h, read-out: GI
PC-3 = assay: Growth inhibition of Homo sapiens (human) PC3 cells at 10 uM after 48 hr by SRB assay; conditions: PC-3, 48 h, read-out: GI
SNB-75 [7] = assay: Cytotoxicity against Homo sapiens (human) SNB75 cells after 48 hr by SRB assay; conditions: SNB-75, 48 h
UACC-62 = assay: Cytotoxicity against Homo sapiens (human) UACC62 cells after 48 hr by SRB assay; conditions: UACC-62, 48 h
SF-539 = assay: Cytotoxicity against Homo sapiens (human) SF539 cells after 48 hr by SRB assay; conditions: SF-539, 48 h
SF-268 = assay: Cytotoxicity against Homo sapiens (human) SF268 cells after 48 hr by SRB assay; conditions: SF-268, 48 h
HCC 2998 = assay: Cytotoxicity against Homo sapiens (human) HCC2998 cells after 48 hr by SRB assay; conditions: HCC 2998, 48 h
HOP-92 [8] = assay: Cytotoxicity against Homo sapiens (human) HOP92 cells after 48 hr by SRB assay; conditions: HOP-92, 48 h
EKVX = assay: Cytotoxicity against Homo sapiens (human) EKVX cells after 48 hr by SRB assay
HOP-62 = assay: Cytotoxicity against Homo sapiens (human) HOP62 cells after 48 hr by SRB assay; conditions: HOP-62, 48 h
SR [9] = assay: Cytotoxicity against Homo sapiens (human) SR cells after 48 hr by SRB assay
RPMI-8226 [10] = assay: Cytotoxicity against Homo sapiens (human) RPMI8226 cells after 48 hr by SRB assay
CCRF-CEM [11] = assay: Cytotoxicity against Homo sapiens (human) CCRF-CEM cells after 48 hr by SRB assay
HL-60(TB) [12] = assay: Cytotoxicity against Homo sapiens (human) HL-60(TB) cells after 48 hr by SRB assay; conditions: HL-60, 48 h
SNB-75 [13] = assay: Growth inhibition of Homo sapiens (human) SNB75 cells at 10 uM after 48 hr by SRB assay; conditions: SNB-75, 48 h, read-out: GI
MCF7 = assay: Growth inhibition of Homo sapiens (human) MCF7 cells at 10 uM after 48 hr by SRB assay; conditions: MCF7, 48 h, read-out: GI
T47D [14] = assay: Growth inhibition of Homo sapiens (human) T47D cells at 10 uM after 48 hr by SRB assay; conditions: read-out: GI
T47D [15] = assay: Cytotoxicity against Homo sapiens (human) T47D cells after 48 hr by SRB assay
BT-549 [16] = assay: Cytotoxicity against Homo sapiens (human) BT549 cells after 48 hr by SRB assay; conditions: BT-549, 48 h
MDA-MB-231 = assay: Cytotoxicity against Homo sapiens (human) MDA-MB-231 cells after 48 hr by SRB assay; conditions: MDA-MB-231, 48 h
UO-31 = assay: Cytotoxicity against Homo sapiens (human) UO31 cells after 48 hr by SRB assay; conditions: UO-31, 48 h
OVCAR-4 = assay: Cytotoxicity against Homo sapiens (human) OVCAR4 cells after 48 hr by SRB assay; conditions: OVCAR-4, 48 h
A498 = assay: Cytotoxicity against Homo sapiens (human) A498 cells after 48 hr by SRB assay; conditions: A498, 48 h
OVCAR-3 = assay: Cytotoxicity against Homo sapiens (human) OVCAR3 cells after 48 hr by SRB assay; conditions: OVCAR-3, 48 h
IGROV-1 = assay: Cytotoxicity against Homo sapiens (human) IGROV1 cells after 48 hr by SRB assay; conditions: IGROV-1, 48 h

Row | Compound | inhibition of growth at 10 µM (HOP-92 [3]) | GI50 (SNB-75 [7]) | GI50 (UACC-62) | GI50 (SF-539) | GI50 (SF-268) | GI50 (HCC 2998) | GI50 (HOP-92 [8]) | GI50 (EKVX) | GI50 (HOP-62) | GI50 (SR [9]) | GI50 (CCRF-CEM [11]) | GI50 (HL-60(TB) [12]) | GI50 (T47D [15]) | GI50 (BT-549 [16]) | GI50 (MDA-MB-231) | GI50 (UO-31) | GI50 (OVCAR-4) | GI50 (A498) | GI50 (OVCAR-3) | GI50 (IGROV-1) | further results
1 | COc1ccc(-c2cc(-c3cccn3C)c(C#N)c(=O)n2S(=O)(=O)c2ccccc2)cc1OC | 25.8% |  |  |  |  |  |  |  |  |  |  |  |  |  |  |  |  |  |  |  | inhibition of growth at 10 µM (SR [1]): 31.4%; inhibition of growth at 10 µM (BT-549 [2]): 21%
2 | COc1ccc(-c2cc(-c3cccs3)n(S(=O)(=O)c3ccccc3)c(=O)c2C#N)cc1 | 21.3% |  |  |  |  |  |  |  |  |  |  |  |  |  |  |  |  |  |  |  | inhibition of growth at 10 µM (NCI-H23): 20%; inhibition of growth at 10 µM (RPMI-8226 [4]): 22%; inhibition of growth at 10 µM (MOLT-4): 28.1%; inhibition of growth at 10 µM (HL-60(TB) [5]): 55%; inhibition of growth at 10 µM (CCRF-CEM [6]): 56.2%; inhibition of growth at 10 µM (K562): 27.7%
3 | CC(=O)n1c(-c2ccc(Br)cc2)cc(-c2cccn2C)c(C#N)c1=O | 24.6% |  |  |  |  |  |  |  |  |  |  |  |  |  |  |  |  |  |  |  | 
4 | COc1ccc(-c2cc(-c3cccn3C)c(C#N)c(=O)n2C(C)=O)cc1OC |  |  |  |  |  |  |  |  |  |  |  |  |  |  |  |  |  |  |  |  | inhibition of growth at 10 µM (K562): 25.3%
5 | COc1ccc(-c2cc(-c3cccs3)n(C(C)=O)c(=O)c2C#N)cc1 | 29.6% |  |  |  |  |  |  |  |  |  |  |  |  |  |  |  |  |  |  |  | inhibition of growth at 10 µM (SR [1]): 30.5%
6 | Cc1nnc2c(C#N)c(-c3cccn3C)cc(-c3ccc(Br)cc3)n12 | 30% |  |  |  |  |  |  |  |  |  |  |  |  |  |  |  |  |  |  |  | inhibition of growth at 10 µM (PC-3): 24%; inhibition of growth at 10 µM (RPMI-8226 [4]): 43.2%; inhibition of growth at 10 µM (CCRF-CEM [6]): 66%
7 | COc1ccc(-c2cc(-c3cccn3C)c(C#N)c3nnc(C)n23)cc1OC | 48% | 44.7 µM | 95.5 µM | > 100 µM | > 100 µM | > 100 µM | > 100 µM | 0.01 µM | 37.1 µM | > 100 µM | > 100 µM | > 100 µM | > 100 µM | > 100 µM | > 100 µM | > 100 µM | > 100 µM | 25.7 µM | > 100 µM | > 100 µM | TGI (EKVX): 0.03 µM; GI50 (RPMI-8226 [10]): 45.7 µM and 19 µM; inhibition of growth at 10 µM (PC-3): 23.8%; inhibition of growth at 10 µM (SNB-75 [13]): 25.8%; inhibition of growth at 10 µM (CCRF-CEM [6]): 39.2%; inhibition of growth at 10 µM (K562): 41.5%; inhibition of growth at 10 µM (MCF7): 29%; inhibition of growth at 10 µM (T47D [14]): 34.3%
8 | COc1ccc(-c2cc(-c3cccs3)n3c(C)nnc3c2C#N)cc1 | 23.5% |  |  |  |  |  |  |  |  |  |  |  |  |  |  |  |  |  |  |  | 
9 | Cn1cccc1-c1cc(-c2ccc(Br)cc2)[nH]c(=O)c1C#N |  | 25.7 µM | 48.9 µM | 89.1 µM | > 100 µM | > 100 µM | > 100 µM | 27.5 µM | 34.7 µM | > 100 µM | 47.3 µM | > 100 µM | > 100 µM | 85.1 µM | 83.2 µM | 69.2 µM | > 100 µM | 54.9 µM | 85.1 µM | 77.6 µM | GI50 (RPMI-8226 [10]; Homo sapiens, RPMI-8226, 48 h): 57.5 µM
10 | COc1ccc(-c2cc(-c3cccn3C)c(C#N)c(=O)[nH]2)cc1OC |  | 23.9 µM | 66.1 µM | 67.6 µM | > 100 µM | 89.1 µM | > 100 µM | 0.05 µM | 30.9 µM | 0.48 µM | 5.01 µM | > 100 µM | 34.7 µM | > 100 µM | > 100 µM | 85.1 µM | > 100 µM | 56.2 µM | > 100 µM | 91.2 µM | TGI (EKVX): 9.77 µM; GI50 (RPMI-8226 [10]; Homo sapiens, RPMI-8226, 48 h): 22.9 µM
11 | COc1ccc(-c2cc(-c3cccs3)[nH]c(=O)c2C#N)cc1 |  | 39.8 µM | > 100 µM | > 100 µM | > 100 µM | > 100 µM | > 100 µM | > 100 µM | > 100 µM | 60.2 µM | 23.4 µM | 45.7 µM | > 100 µM | > 100 µM | > 100 µM | > 100 µM | 69.2 µM | > 100 µM | > 100 µM | > 100 µM | GI50 (RPMI-8226 [10]; Homo sapiens, RPMI-8226, 48 h): 22.4 µM
